Assay results reported in ChEMBL document CHEMBL3044919 (Med Chem Res, 2005).

Tests used:
[1] = Displacement of [3H]DTG from sigma-1 receptor in Cavia porcellus (guinea pig) brain membranes; set-up: species or system Membrane
Cavia porcellus = species on record: Cavia porcellus; assay: Selectivity ratio of Ki for sigma-2 receptor in Cavia porcellus (guinea pig) brain membranes to Ki for sigma-1 receptor in Cavia porcellus (guinea pig) brain membranes
[2] = target: Sigma non-opioid intracellular receptor 1 (Cavia porcellus, UniProt Q60492); assay: Displacement of [3H](+)pentazocine from sigma-1 receptor in Cavia porcellus (guinea pig) brain membranes; set-up: species or system Membrane
Chain of Sigma non-opioid intracellular receptor 1 (Q60492 whole entry): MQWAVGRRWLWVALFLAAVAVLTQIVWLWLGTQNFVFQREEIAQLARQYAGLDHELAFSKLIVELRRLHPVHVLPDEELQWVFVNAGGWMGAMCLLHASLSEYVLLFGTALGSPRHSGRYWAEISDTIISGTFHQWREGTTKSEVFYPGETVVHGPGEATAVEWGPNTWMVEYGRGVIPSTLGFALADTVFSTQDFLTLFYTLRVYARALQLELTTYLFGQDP

[3] = target: Kappa-type opioid receptor (Homo sapiens, UniProt P41145); assay: Binding affinity to Kappa opioid receptor (unknown origin)
Chain of Kappa-type opioid receptor (P41145 whole entry): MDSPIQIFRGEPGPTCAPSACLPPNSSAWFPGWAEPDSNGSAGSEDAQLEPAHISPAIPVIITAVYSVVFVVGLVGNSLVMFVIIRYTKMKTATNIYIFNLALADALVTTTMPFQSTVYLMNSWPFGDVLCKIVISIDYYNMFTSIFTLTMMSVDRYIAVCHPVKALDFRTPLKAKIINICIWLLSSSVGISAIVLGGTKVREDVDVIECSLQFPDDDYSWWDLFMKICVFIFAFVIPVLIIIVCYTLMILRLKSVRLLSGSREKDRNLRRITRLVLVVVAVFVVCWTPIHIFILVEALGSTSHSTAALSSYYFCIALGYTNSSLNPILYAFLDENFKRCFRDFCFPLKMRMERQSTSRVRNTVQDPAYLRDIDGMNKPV

[4] = target: T1, Adrenergic receptor alpha-2 (Homo sapiens, UniProt P08913+P18825+P18089); assay: Binding affinity to alpha2 receptor (unknown origin)
T1 sequence (P08913 whole entry): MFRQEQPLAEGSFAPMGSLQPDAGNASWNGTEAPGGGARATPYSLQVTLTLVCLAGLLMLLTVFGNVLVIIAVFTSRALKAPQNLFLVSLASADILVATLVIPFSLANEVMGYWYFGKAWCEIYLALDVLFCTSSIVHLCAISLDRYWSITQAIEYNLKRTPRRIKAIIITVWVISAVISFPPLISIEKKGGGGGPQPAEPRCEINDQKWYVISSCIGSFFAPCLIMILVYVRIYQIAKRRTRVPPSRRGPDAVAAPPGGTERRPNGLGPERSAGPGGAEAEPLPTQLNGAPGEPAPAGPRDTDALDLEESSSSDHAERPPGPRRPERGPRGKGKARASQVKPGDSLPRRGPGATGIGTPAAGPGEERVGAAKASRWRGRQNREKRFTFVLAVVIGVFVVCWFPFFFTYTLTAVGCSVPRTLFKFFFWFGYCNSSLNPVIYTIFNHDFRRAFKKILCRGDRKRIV
T1 sequence (P18825 whole entry): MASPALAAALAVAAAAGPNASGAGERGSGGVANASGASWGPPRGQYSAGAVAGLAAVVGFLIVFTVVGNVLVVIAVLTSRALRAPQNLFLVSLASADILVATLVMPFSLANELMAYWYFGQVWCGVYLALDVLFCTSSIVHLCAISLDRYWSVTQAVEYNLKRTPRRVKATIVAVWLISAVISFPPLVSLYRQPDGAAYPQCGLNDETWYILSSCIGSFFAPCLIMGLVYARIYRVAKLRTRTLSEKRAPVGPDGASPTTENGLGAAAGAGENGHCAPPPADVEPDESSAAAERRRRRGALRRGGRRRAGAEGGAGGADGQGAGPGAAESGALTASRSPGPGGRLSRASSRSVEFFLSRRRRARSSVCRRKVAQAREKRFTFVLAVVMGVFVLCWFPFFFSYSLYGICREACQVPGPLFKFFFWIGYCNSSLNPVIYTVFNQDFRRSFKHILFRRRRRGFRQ
T1 sequence (P18089 whole entry): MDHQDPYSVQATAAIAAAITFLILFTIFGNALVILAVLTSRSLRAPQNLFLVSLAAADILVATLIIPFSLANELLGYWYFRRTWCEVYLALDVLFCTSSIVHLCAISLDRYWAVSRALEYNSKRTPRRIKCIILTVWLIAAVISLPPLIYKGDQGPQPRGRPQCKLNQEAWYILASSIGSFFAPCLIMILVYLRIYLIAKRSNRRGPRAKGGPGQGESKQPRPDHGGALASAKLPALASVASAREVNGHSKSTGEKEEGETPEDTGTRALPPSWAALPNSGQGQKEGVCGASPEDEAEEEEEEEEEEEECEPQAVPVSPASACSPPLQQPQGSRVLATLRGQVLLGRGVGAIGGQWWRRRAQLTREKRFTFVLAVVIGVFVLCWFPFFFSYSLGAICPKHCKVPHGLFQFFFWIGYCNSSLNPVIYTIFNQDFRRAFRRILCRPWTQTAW

Histamine H1 receptor = Histamine H1 receptor (Homo sapiens, UniProt P35367); assay: Binding affinity to histamine H1 (unknown origin)
Chain of Histamine H1 receptor (P35367 whole entry): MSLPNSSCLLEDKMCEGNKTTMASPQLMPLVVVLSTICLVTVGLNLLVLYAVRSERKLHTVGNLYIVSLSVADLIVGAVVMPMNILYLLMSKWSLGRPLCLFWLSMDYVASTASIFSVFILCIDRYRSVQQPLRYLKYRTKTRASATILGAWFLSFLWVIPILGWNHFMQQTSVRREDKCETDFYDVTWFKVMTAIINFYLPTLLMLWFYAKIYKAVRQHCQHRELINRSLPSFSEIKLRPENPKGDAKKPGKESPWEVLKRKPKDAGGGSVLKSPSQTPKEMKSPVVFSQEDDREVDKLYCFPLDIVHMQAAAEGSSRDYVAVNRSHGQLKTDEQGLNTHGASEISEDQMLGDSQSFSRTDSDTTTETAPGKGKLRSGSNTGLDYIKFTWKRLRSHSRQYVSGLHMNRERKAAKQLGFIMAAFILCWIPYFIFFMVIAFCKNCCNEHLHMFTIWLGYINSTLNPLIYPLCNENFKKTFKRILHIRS

| Ki [1] | Ratio Ki (Cavia porcellus) | Ki [2] | Ki [3] | SMILES | Ki [4] | Ki (Histamine H1 receptor) |
| --- | --- | --- | --- | --- | --- | --- |
| 0.202 µM | 87 | 0.0023 µM | – | CCC(=O)c1ccc2c(c1)sc(=O)n2CCCN1CCCCC1 | – | – |
| 0.018 µM | 30 | 0.0006 µM | – | CCCc1ccc2c(c1)sc(=O)n2CCN1CCCCC1 | – | – |
| – | 2 | 0.00126 µM | 0.418 µM | CN(C[C@@H]1C[C@@]1(CO)c1ccccc1)C12CC3CC(CC(C3)C1)C2 (relative stereo) | – | – |
| > 1 µM | – | 0.0037 µM | – | CCCCc1ccc2c(c1)sc(=O)n2CCN1CCCCC1 | – | – |
| 0.013 µM | 4.5 | 0.0029 µM | – | CCCc1ccc2c(c1)sc(=O)n2CCCCN1CCCCC1 | – | – |
| > 1 µM | – | > 1 µM | – | O=C(c1ccc2c(c1)sc(=O)n2CCN1CCCCC1)C1CC1 | – | – |
| > 1 µM | > 1000 | 0.0012 µM | – | CCCc1ccc2c(c1)sc(=O)n2CCCN1CCCCC1 | – | – |
| 0.496 µM | 58 | 0.0085 µM | – | CCC(=O)c1ccc2c(c1)oc(=O)n2CCCN1CCCCC1 | – | – |
| > 1 µM | – | 0.0014 µM | – | CCCc1ccc2c(c1)sc(=O)n2CCN1C[C@]2(C)CCC[C@]2(C)C1 | – | – |

| SMILES | Ki [1] | Ratio Ki (Cavia porcellus) | Ki [2] | Ki [3] | Ki [4] | Ki (Histamine H1 receptor) |
| --- | --- | --- | --- | --- | --- | --- |
| CCCc1ccc2c(c1)sc(=O)n2CCN1CCCCCC1 | > 1 µM | > 1000 | 0.00056 µM | – | 0.205 µM | 0.311 µM |
| CCCc1ccc2c(c1)OCC(=O)N2CCN1CCCCC1 | > 1 µM | – | 0.028 µM | – | – | – |
